From ChEMBL document CHEMBL1127366, “Structure--activity relationships of sialyl Lewis x-containing oligosaccharides. 1. Effect of modifications of the fucose moiety” (J Med Chem, 1994)

Molecular target: T1, E-selectin (Homo sapiens, UniProt P16581)
T1 sequence (P16581 whole entry): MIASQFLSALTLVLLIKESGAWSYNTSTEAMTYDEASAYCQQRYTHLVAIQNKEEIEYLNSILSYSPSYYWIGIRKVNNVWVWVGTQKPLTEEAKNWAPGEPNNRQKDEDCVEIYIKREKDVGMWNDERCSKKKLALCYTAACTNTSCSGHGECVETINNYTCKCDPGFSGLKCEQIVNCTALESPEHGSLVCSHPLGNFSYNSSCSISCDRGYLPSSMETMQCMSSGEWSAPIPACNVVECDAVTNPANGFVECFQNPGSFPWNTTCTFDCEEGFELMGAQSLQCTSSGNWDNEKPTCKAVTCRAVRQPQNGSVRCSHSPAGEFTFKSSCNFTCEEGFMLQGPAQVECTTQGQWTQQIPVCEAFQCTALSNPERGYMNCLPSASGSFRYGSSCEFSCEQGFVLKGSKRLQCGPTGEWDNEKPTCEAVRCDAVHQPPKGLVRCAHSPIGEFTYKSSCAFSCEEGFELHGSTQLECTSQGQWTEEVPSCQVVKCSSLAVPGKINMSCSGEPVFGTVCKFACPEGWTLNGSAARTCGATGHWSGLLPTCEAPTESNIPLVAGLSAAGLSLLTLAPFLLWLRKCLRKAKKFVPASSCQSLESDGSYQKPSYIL
Assay: Tested for inhibition of cell adhesion of HL-60 containing SLeX to purified recombinant human E-selectin

- IC50: 5 mM
SMILES: CCO[C@@H]1O[C@@H](CO)[C@H](O)[C@H](O[C@@H]2O[C@@H](CO)[C@@H](O[C@@H]3O[C@@H](CO)[C@H](O)[C@H](O[C@]4(C(=O)ON)C[C@@H](O)[C@@H](NC(C)=O)C([C@H](O)[C@H](O)CO)O4)[C@@H]3O)[C@H](O[C@@H]3OC[C@@H](O)[C@H](O)[C@@H]3O)[C@@H]2NC(C)=O)[C@@H]1O (stereo partly specified)
